These results are taken from paper PMC9266004, “Potential Common Mechanisms of Cytotoxicity Induced by Amide Herbicides via TRPA1 Channel Activation” (International Journal of Environmental Research and Public …, 2022).

Read-outs that look alike come from different tables or passages of the source.

Holding throughout (assay type): cell-based, human
Data set [1] concerns calcium influx in A549 cells. Kind of data set: Cellular calcium imaging (Fluo-4) in WT A549 cells. Conditions: for calcium influx compared with 0 μM AHs: A549 cells, 150, 300, 600, 1200 μM; for calcium influx with HC-030031 pre-treatment compared with AHs treatment alone: A549 cells, HC-030031 50 μM, AHs 150-1200 μM. As for the experimental part:
(§1) Wild-type (WT) and TRPA1-KO A549 cells were cultured in McCoy’s 5A Media and F-12K Nutrient Mixture containing 10% fetal bovine serum, respectively. WT/TRPA1-KO A549 cells (5 × 10^4 cells/mL) were seeded in 96-well (100 μL/well) and 6-well (2 mL/well) plates and incubated at 37 °C with 5% CO2 in a humidified incubator for 24 h. WT/TRPA1-KO A549 cells were treated with AHs gradient concentrations (0, 150, 300, 600, 1200 μM) prepared in methanol (1.2 M) for 24 h. […]
(§2) Working solution was prepared according to the instructions of the Fluo-4 Direct calcium assay kit and directly added to WT/TRPA1-KO A549 cells in 96-well plates, which were incubated for 0.5 h and kept away from light after removal from the incubator. Single channel fluorescein isothiocyanate (FITC) levels were measured using a confocal high-content imaging system (IXM-C S150069, Molecular Devices, San Jose, CA, USA).

The test system of data set [2] is A549 cells. The data set is described as follows: CCK-8 cell viability assay in WT A549 cells. Conditions: for viability of A549 cells compared with 0 μM AHs: 150, 300, 600, 1200 μM, 24 h; for viability of A549 cells compared with 0 μM AHs / IC50: CCK-8; for viability with HC-030031 pre-treatment compared with AHs treatment alone: A549 cells, HC-030031 50 μM, AHs 150, 300, 600 μM. As for the experimental part: as §1
To conduct the cell viability assay, the growth medium was removed from WT/TRPA1-KO A549 cells cultured in a 96-well plate. CCK-8 reagent was mixed with complete medium (1:9 volume ratio), and 100 µL of the CCK-8 reagent mixture was added to each well. The plate was incubated for 4 h and the absorbance was measured at 450 nm using a microplate reader (BNR05740; Molecular Devices, Sunnyvale, CA, USA). The average absorbance from each sextuplicate set of wells was calculated and the background control value was subtracted from each absorbance value. The percentage cell viability was determined using the following equation:cell viability (%) = [(As − Ab)/(Ac − Ab)] × 100% where As is the absorbance of the experimental well (containing medium, CCK-8 reagent, cells, and compound); Ac is the absorbance of the control well (containing medium, CCK-8 reagent, and cells); and Ab is the absorbance of the blank well (containing medium and CCK-8 reagent).
Background: Tetrazolium dyes change colour on reduction, which living cells bring about.

The test system of data set [3] is calcium influx in TRPA1-KO A549 cells. The data set is described as follows: Cellular calcium imaging (Fluo-4) in TRPA1-KO A549 cells. Particulars: AHs 150-1200 μM. As for the experimental part: The hTRPA1 gene sequence (Gene ID: 8989) was obtained from the National Center for Biotechnology Information (NCBI) website (https://www.ncbi.nlm.nih.gov/gene/8989 accessed on 26 May 2022). Three gRNA sequences, namely, T1: 5′-[…]-[…], T16: 5′-[…]-3′, and T20: 5′-[…]-3′, were designed using the CRISPR online design tool (http://crispr.mit.edu/ accessed on 26 May 2022). Transfection of cells with gRNA-Cas9 was validated in test cells. Cell pool examination was performed using Sanger sequencing. Sequencing and tracer analysis were performed using the online tool TIDE (https://tide-calculator.nki.nl/ accessed on 26 May 2022) to investigate the cleavage efficiency of T1, T16, and T20. Cells from the cell pool were diluted in 96-well plates. Clones were observed under a microscope and wells containing single cell clones were labeled. Single cell clones were transferred to 24-well plates for expansion. Validation of knockout (KO) clones was performed via sequencing to confirm insertion and deletion on the genomes of KO clone candidates. Furthermore, mycoplasmas were detected for cloned cells with high KO using the Mycoplasma PCR Detection Kit.
(§3) Wild-type (WT) and TRPA1-KO A549 cells were cultured in McCoy’s 5A Media and F-12K Nutrient Mixture containing 10% fetal bovine serum, respectively. WT/TRPA1-KO A549 cells (5 × 10^4 cells/mL) were seeded in 96-well (100 μL/well) and 6-well (2 mL/well) plates and incubated at 37 °C with 5% CO2 in a humidified incubator for 24 h. WT/TRPA1-KO A549 cells were treated with AHs gradient concentrations (0, 150, 300, 600, 1200 μM) prepared in methanol (1.2 M) for 24 h. Additionally, WT/TRPA1-KO A549 cells were pre-treated with TRPA1 special inhibitor HC-030031 (100 μM) for 0.5 h and then treated with AHs gradient concentrations for 24 h.
as §2

The test system of data set [4] is A549 cells. Kind of data set: LDH cytotoxicity assay. Particulars: 150, 300, 600, 1200 μM, 24 h. Here is the method: as §3
Using the Cytotoxicity LDH Assay Kit, lysis buffer (10 μL) was added to the high control well of a 96-well plate containing WT/TRPA1-KO A549 cells, which was then incubated for 0.5 h. Working solution was prepared by adding 5 mL assay buffer to the dye mixture vial, of which 100 μL was added to each well. The plate was protected from light and incubated at room temperature for 0.5 h. Subsequently, 50 μL stop solution was added to each well and the absorbance was measured immediately at 490 nm using a microplate reader (BNR05740, Molecular Devices). The average absorbance was calculated from each sextuplicate set of wells and the background control value was subtracted from each absorbance value. The percentage cytotoxicity was determined using the following equation:cytotoxicity (%) = [(Aa − Ab1)/(Ab2 − Ab1)] × 100% where Aa is the absorbance of the experimental well (containing medium, cells, and compound); Ab2 is the absorbance of the high control well (containing medium, cells, and lysis buffer); and Ab1 is the absorbance of the low control well (containing medium and cells).

The next data set deals with TRPA1 mRNA in A549 cells. Kind of data set: RT-qPCR of TRPA1 mRNA. Particulars: for TRPA1 mRNA expression with HC-030031 pre-treatment compared with AHs treatment alone: HC-030031 50 μM, AHs 150, 300, 600 μM; for expression of TRPA1 mRNA compared with 0 μM AHs: significant at one or more of 150, 300, 600 μM. As for the experimental part: as §1
TRIzol Reagent (1 mL) was directly added to WT/TRPA1-KO A549 cells in 6-well plates and total RNA was extracted according to the manufacturer’s instructions. Total RNA was used for cDNA reverse transcription, which was performed according to the PrimeScript RT protocol with the following reaction conditions: 42 °C for 2 min, 4 °C for ∞ (removal of genomic DNA), 37 °C for 15 min, 85 °C for 5 s, and 4 °C for ∞ (reverse transcriptional reaction). RT-qPCR was performed according to the TB Green Premix Ex Taq II protocol. Primer sequences and product lengths were as follows: hTRPA1 (107 bp) forward primer 5′-[…]-3′, reverse primer 5′-[…]-3′; hβ-actin (184 bp) forward primer 5′-[…]-3′, reverse primer 5′-[…]-3′. RT-qPCR was performed using the CFX96 Real-Time System (Bio-Rad Laboratories, Hercules, CA, USA) using the following reaction conditions: 95 °C for 30 s, 40 cycles of 95 °C for 5 s, 60 °C for 30 s, and 72 °C for 30 s, followed by a melting curve from 65 to 95 °C in 0.5 °C/5 s increments. Calculations were performed using the CFX Manager^TM Version 1.0 software (Bio-Rad Laboratories Ltd., Hercules, CA, USA) and are represented as fold change in expression [2^ΔΔC(t)] on a linear scale.
For orientation: Real-time PCR tracks product formation cycle by cycle.

Where [5] appears, read: Homo sapiens, WT A549 cells, 24 h treatment, read-out: IC50 values of AHs, A549 Cells.
Where [6] appears, read: WT A549 cells pre-treated with HC-030031 50 μM, then AHs 24 h, read-out: IC50 values of AHs, A549 Cells + HC-030031 50 μM.

For orientation: IC50 means the midpoint of a concentration-inhibition curve. Turning to `CCc1cccc(C)c1N(C(=O)CCl)C(C)COC` (stereo not drawn) [Metolachlor, metolachlor], in data set [1], the “calcium influx compared with 0 μM AHs” value is reported as “significantly increased” and the “calcium influx with HC-030031 pre-treatment compared with AHs treatment alone” value is reported as “significantly decreased calcium influx”. In the data set with A549 cells [2], the “viability of A549 cells compared with 0 μM AHs” value is on record as “significantly decreased” and the “viability with HC-030031 pre-treatment compared with AHs treatment alone” value (“viability … compared with AHs treatment alone” for short) is “significantly increased viability”. Moreover, in the data set with A549 cells [2] (setting [5]), the IC50 was 430 µM. The IC50 in the data set with A549 cells [2] (setting [6]) was 620 µM. Moreover, in data set [3], the “calcium influx with KO of TRPA1 compared with AHs-treated WT cells” value is on record as “significantly decreased calcium influx”. In addition, in the data set on A549 cells [4], the “cell damage (LDH) compared with 0 μM AHs” value is recorded as “significantly increased cell damage”. In addition, in the data set with TRPA1 mRNA in A549 cells, the “TRPA1 mRNA expression with HC-030031 pre-treatment compared with AHs treatment alone” value is given as “significantly reduced” and the “expression of TRPA1 mRNA compared with 0 μM AHs” value was “significantly increased”.

Regarding `CCCOCCN(C(=O)CCl)c1c(CC)cccc1CC` [Pretilachlor, pretilachlor], in data set [1], the “calcium influx compared with 0 μM AHs” value was “significantly increased” and the “calcium influx with HC-030031 pre-treatment compared with AHs treatment alone” value was “significantly decreased calcium influx”. Besides, in the data set with A549 cells [2], the “viability of A549 cells compared with 0 μM AHs” value is given as “significantly decreased” and the “viability … compared with AHs treatment alone” value was “significantly increased viability”. The IC50 in the data set with A549 cells [2] (setting [5]) stood at 2330 µM. In addition, the IC50 in the data set with A549 cells [2] (setting [6]) is 4460 µM. Further, the “calcium influx with KO of TRPA1 compared with AHs-treated WT cells” value in data set [3] is reported as “significantly decreased calcium influx”. Moreover, in the data set with A549 cells [4], the “cell damage (LDH) compared with 0 μM AHs” value is on record as “significantly increased cell damage”. Besides, in the data set on TRPA1 mRNA in A549 cells, the “TRPA1 mRNA expression with HC-030031 pre-treatment compared with AHs treatment alone” value was “albeit not significantly” and the “expression of TRPA1 mRNA compared with 0 μM AHs” value is “significantly increased”.

Turning to `CCC(=O)Nc1ccc(Cl)c(Cl)c1` [Propanil, propanil], in data set [1], the “calcium influx compared with 0 μM AHs” value was “significantly increased” and the “calcium influx with HC-030031 pre-treatment compared with AHs treatment alone” value is “significantly decreased calcium influx”. Also, in the data set with A549 cells [2], the “viability of A549 cells compared with 0 μM AHs” value was “significantly decreased” and the “viability … compared with AHs treatment alone” value is reported as “significantly increased viability”. Also, the IC50 in the data set on A549 cells [2] (setting [5]) turned out to be 831 µM. The IC50 in the data set on A549 cells [2] (setting [6]) is 2290 µM. For the same compound, the “calcium influx with KO of TRPA1 compared with AHs-treated WT cells” value in data set [3] is on record as “significantly decreased calcium influx”. For the same compound, the “cell damage (LDH) compared with 0 μM AHs” value in the data set with A549 cells [4] is listed as “significantly increased cell damage”. In the data set with TRPA1 mRNA in A549 cells, the “TRPA1 mRNA expression with HC-030031 pre-treatment compared with AHs treatment alone” value is recorded as “significantly reduced” and the “expression of TRPA1 mRNA compared with 0 μM AHs” value is reported as “significantly increased”.
